# In patent US20240011034A1, “INHIBITION OF miR-29b-3p TO ENHANCE NEURONAL SURVIVAL IN HUNTINGTON'S DISEASE” (Washington University, priority 2022, published 2024):
# Assays:
# [1] = system: α1-antitrypsin Z variant (ATZ); assay: Immunoblot of steady-state ATZ in HTO/Z cell line model of α1-antitrypsin deficiency; type: cell-based; settings: 24 hr, 0.5 and 2.5 μM vs DMSO (0.5 μM: p=0.003)
# Procedure: FIG. 7A-7H show autophagy activator rescues HD-MSNs from degeneration. […] The normalized intensity (bottom) was calculated from immunoblot images for 0.5 μM versus DMSO control (Individual data plotted, n=4; *p=0.003 by t-test; Mean±s.e.m.). FIG. 7C show representative images of p62 and TUBB3-positive cells (top) and quantification of p62 intensity per cell (bottom) at PID26 from multiple healthy control old and HD-MSNs treated with DMSO or 0.5 μM G2-115. Each dot represents one individual's reprogrammed MSN. Scale bars is 20 μm FIG. 7D show representative images of CYTO-ID staining (top) and quantification of CYTO-ID green signals (bottom) at PID26 from multiple healthy control old and HD-MSNs treated with DMSO or 0.5 μM G2-115. Each dot represents one individual's reprogrammed MSN. Scale bar is 20 μm FIG. 7E show representative images (top) and quantification (bottom) of SYTOX-positive cells as a fraction of Hoechst-positive cells in HD-MSN treated with DMSO or different concentration of G2-115 (0.125, 0.25, or 0.5 μM) (n=4). Scale bar is 20 μm. FIG. 7F show quantification of SYTOX-positive cells from multiple healthy control old and HD-MSNs treated with DMSO or 0.5 μM G2-115. […] FIG. 7G show Representative images (left) and quantification (right) of caspase3/7 activation (green) and Annexin V signal (green) from three independent HD-MSN lines treated with DMSO or 0.5 μM G2-115. […]
# [2] = system: reprogrammed MSNs; assay: CYTO-ID assay for accumulated autophagic vacuoles; type: cell-based, human; settings: 0.5 μM vs DMSO, PID26
# Source text: First, tandem monomeric mCherry-GFP-tagged LC3, previously shown to distinguish prefusion autophagic compartments from mature acidic autolysosomes based on the differential pH sensitivity of GFP versus mCherry, was used. […] CYTO-ID assay, a fluorescence-based live-cell assay for accumulated autophagic vacuoles, and immunostaining of p62/SQSTM1, a marker widely used to monitor autophagic activity due to its binding to LC3 and degradation during autophagy, were further performed. […] The difference in p62 between pre-HD-MSNs and HD-MSNs was also validated by immunoblot assay (FIG. 3I). Because caspase activation has been detected in HD, and cell death-related pathways (apoptosis and caspase) were enriched in the brown module, the levels of caspase activation between pre-HD-MSN and HD-MSNs were compared.
# [3] = system: reprogrammed MSNs; assay: SYTOX assay (neuronal cell death); type: cell-based, human; settings: for SYTOX-positive cells (beneficial effect): 0.5 μM vs DMSO
# Procedure: 0.1 μM SYTOX gene nucleic acid stain (Invitrogen, S7020) and 1 μl/mL of Hoechst 33342 (Thermo Scientific, 66249) were added into cell medium. Samples were incubated for at least 30 mins at 37° C. prior to live-cell imaging. Images were taken using Leica DMI 4000B inverted microscope with Leica Application Suite (LAS) Advanced Fluorescence.
# [4] = system: reprogrammed MSNs; assay: tandem mCherry-GFP-LC3 reporter puncta quantification; type: cell-based, human; settings: HD-MSNs, 0.5 μM vs DMSO
# Procedure: FUW mCherry-GFP-LC3 used was Addgene plasm id # 110060; http://n2t.net/addgene:110060; RRID:Addgene_110060. The concentrated lentivirus of mCherry-GFP-LC3 was added to reprogrammed MSNs at PID20. For imaging of cells expressing mCherry-GFP-LC3, cells were washed once with PBS, fixed and stained by TUBB3 antibody, after verification of expression of GFP and mCherry by microscopy at PID26. Images were captured using a Leica SP5X white light laser confocal system with Leica Application Suite (LAS) Advanced Fluorescence 2.7.3.9723. For quantification of autophagosome (i.e., mCherry+, GFP+ puncta) and autolysosome (i.e., mCherry+, GFP− puncta) compartments in MSNs from multiple HD patients and control individuals, measurements were performed in cells having at least 3 puncta per cell.
# [5] = system: reprogrammed MSNs; assay: Apoptosis assay in live cells (Caspase-3/7, Annexin V); type: cell-based, human; settings: HD-MSNs, vs DMSO
# Procedure: Reprogrammed cells grown in 96-well plates were treated with 1× Essen Bioscience IncuCyte® Caspase-3/7 Green Reagent (final concentration 5 μM) and 1× Essen Bioscience IncuCyte® Annexin V Green or Red Reagent on day 22 or 26. Image scheduling, collection, and analysis were conducted with the IncuCyte® S3 LiveCell Analysis System platform and IncuCyte S3 v2017A software. Treated plates were imaged every two hours for 7 days. At each timepoint, over 2 images were taken per well in brightfield, FITC, and TRITC channels. Images were analyzed for the number of green or red objects per well. For the apoptotic index, the number of green or red objects (i.n., fluorescence cells) divided by phase area (μm2) per well was quantified by the IncuCyte® S3 Live-Cell Analysis System.
# [6] = system: p62/SQSTM1; assay: p62/SQSTM1 immunostaining and immunoblot; type: cell-based, human; settings: 0.5 μM vs DMSO, PID26
# Procedure: (§1) Reprogrammed cells were fixed with 4% paraformaldehyde (Electron Microscopy Sciences, #15710) for 20 min at room temperature (RT), and permeabilized with 0.2% Triton X-100 for 10 min at RT. Cells were blocked with 5% BSA and 1% goat serum in PBS and incubated with primary antibodies at 4° C. overnight, then incubated with secondary antibodies for 1 hr at RT. Cells were incubated with DAPI (Sigma, D-9542) for 5 minutes followed by washing with PBS. Images were captured using a Leica SP5X white light laser confocal system with Leica Application Suite (LAS) Advanced Fluorescence 2.7.3.9723.
# Cells were lysed in 2% SDS buffer. The concentrations of whole-cell lysates were measured using the Pierce BCA protein assay kit (Thermo Scientific, #23227). […]
# First, tandem monomeric mCherry-GFP-tagged LC3, previously shown to distinguish prefusion autophagic compartments from mature acidic autolysosomes based on the differential pH sensitivity of GFP versus mCherry, was used. […] CYTO-ID assay, a fluorescence-based live-cell assay for accumulated autophagic vacuoles, and immunostaining of p62/SQSTM1, a marker widely used to monitor autophagic activity due to its binding to LC3 and degradation during autophagy, were further performed. […]
# [7] = system: HTT inclusion bodies; assay: HTT inclusion bodies / mHTT aggregation by immunostaining; type: cell-based, human; settings: HD-MSNs, 0.5 μM vs DMSO, PID30
# Procedure: as §1
smiles,measurement,setting,value
"O=c1ccc2c(Cl)cc(Cl)cc2[nH]1 [G2-115, 5,7-dichloro-1H-quinolin-2-one]",steady-state levels of ATZ,[1],decreased
same,number of autophagic vacuoles (CYTO-ID signals),[2]; HD-MSNs,increased
same,number of autophagic vacuoles (CYTO-ID signals),[2]; old Ctrl-MSNs,increased
same,HD-MSN survival (reduction of SYTOX signal),"[3]; HD-MSN, 0.125, 0.25 or 0.5 μM vs DMSO, treated from PID14 every four days for 16 days",promoted HD-MSN survival in a dose-dependent manner
same,SYTOX-positive cells (beneficial effect),[3]; HD-MSNs from six independent patients,consistent in HD-MSNs from six independent patients
same,SYTOX-positive cells (beneficial effect),[3]; age-matched (old) Ctrl-MSNs versus HD-MSNs,specific to HD-MSNs
same,average number of autolysosomes,[4],increased
same,average number of autophagosomes,[4],increased
same,Annexin V signal,[5],reduced
same,Caspase 3/7 signal,[5],reduced
same,p62/SQSTM1 signal,[6]; HD-MSNs,decreased
same,p62/SQSTM1 signal,[6]; old Ctrl-MSNs,decreased
same,number of HTT inclusion bodies,[7],reduced
